Test results taken from PMC10744333, “New Perspective for Using Antimicrobial and Cell-Penetrating Peptides to Increase Efficacy of Antineoplastic 5-FU in Cancer Cells” (Journal of Functional Biomaterials, 2023).
Like-named read-outs stand apart in the source and are kept apart here. Where a SMILES comes first, the peptide text is derived from it.

Experiments:
[1] = test system: UM-UC-5 urothelial bladder cancer cell lines; assay: tissue or blood; format: cell-based; settings: 48 h
Description: (§1) A549 adenocarcinomic human alveolar basal epithelial cells, UM-UC-5 urothelial bladder cancer cell lines, and MRC-5 human normal lung fibroblast cells (all from ATCC, American Type Culture Collection, Manassas, VA, USA) were cultured in Dulbecco’s Modified Eagle Medium (DMEM) medium (Gibco®, Grand Island, NY, USA), supplemented with 10% fetal bovine serum (FBS, Gibco®, Grand Island, NY, USA) and 1% (v/v) penicillin/streptomycin (Sigma-Aldrich®, Steinheim, Germany), maintained at 37 °C and 95% humidified air in a 5% CO2 environment. Cells were cultured in monolayers in T25 cm^2 flasks (ThermoScientific®, Waltham, MA, USA) and cell media were replaced every 2–3 days. At 80% confluency, cells were subcultured. For the subculture process, 0.25% trypsin-ethylenediaminetetraacetic acid (EDTA, Sigma-Aldrich®, Steinheim, Germany), was added.
(§2) The potential of the antineoplastic drug 5-FU, five cationic antimicrobial peptides (CAMPs), and two cell-penetrating peptides (CPPs) was analyzed in UM-UC-5 and A549 cell lines. Cells were treated with drugs in concentrations ranging from 0.1 to 100 μM (for 5-FU) and 0.1 to 50 μM (for CAMPs and CPPs) for 48 h, and cell survival was evaluated using the MTT assay. […] IC50 values > 100 μM were not considered.
(§3) The cell viability was measured using the MTT (Thiazolyl blue tetrazolium bromide; cat. no. M5655; Sigma-Aldrich; Merck KGaA, Darmstadt, Germany) assay in 96-well plates. For the protocol, 5 × 10^3 cells in 200 µL of medium were grown per well for 24 h at 37 °C. Then, cells were treated with CAMPs and CPPs in the following concentrations: 0.1, 1.0, 5.0, 10, 25, and 50 µM. […] The controls were treated with 0.1% H2O and 0.1% DMSO (vehicles). After incubation for 48 h at 37 °C, cell media were aspirated and 100 µL of MTT solution (0.5 mg/mL in PBS) was added to each well. After incubation for 3 h at 37 °C protected from light, MTT solution was removed from each well and 100 µL of DMSO was added to each well to solubilize the formazan crystals. Absorbance was measured on a Tecan Infinite M200 plate reader (Tecan Group Ltd., Männedorf, Switzerland) at 570 nm. The cell viability was calculated relative to the absorbance of carrier controls. Average values were obtained by performing three independent cell viability assays (n = 3).

[2] = test system: A549 adenocarcinomic human alveolar basal epithelial cells; format: cell-based; settings: 48 h
Description: as §1, §2, §3

[3] = UM-UC-5 cells, MTT, n = 3, read-out: IC50
[4] = A549 cells, MTT, n = 3, read-out: IC50

| Molecule | IC50 [1, 3] [µM] | IC50 [2, 4] [µM] | IC50 [1] [µM] | IC50 [2] [µM] |
| --- | --- | --- | --- | --- |
| CC[C@H](C)[C@H](NC(=O)[C@@H](NC(=O)[C@@H](NC(=O)[C@H](CCCNC(=N)N)NC(=O)[C@H](CCCNC(=N)N)NC(=O)[C@H](CCC(N)=O)NC(=O)[C@H](CCCNC(=N)N)NC(=O)/C=C/c1ccccc1)C(C)C)C(C)C)C(=O)N[C@@H](Cc1c[nH]c2ccccc12)C(=O)N[C@@H](Cc1c[nH]c2ccccc12)C(N)=O [CPP2] (HELM PEPTIDE1{[O=C(/C=C/c1ccccc1)[*:2]].R.Q.R.R.V.V.I.W.W.[am]}$$$$V2.0) | 5.47 | > 100 |  |  |
| H-RLWWWWRRR-NH2 [CAMP3] |  |  | > 100 | 17.6 |
| H-WKWLKKWIK-NH2 [CAMP1] | > 100 | 12.4 |  |  |
| H-WRKFWKYLK-NH2 [CAMP2] | 21.6 | 5.77 |  |  |
| H-RIRRWKFRW-NH2 [CAMP5] | > 100 | 19.7 |  |  |
| O=c1[nH]cc(F)c(=O)[nH]1 [Peptide 5-FU, 5-fluorouracil, reference compound] | 4.21 |  |  |  |
| H-RQRRVVIWW-NH2 [CAMP7] | > 100 | > 100 |  |  |
| Ac-CLLIILRRRIRKQAHAHSK-NH2 [CPP4] |  |  | > 100 | > 100 |
